Experiment [1] concerns HCV replicon (BB7 sequence) in Huh-7-Clone A cells. The experiment is described as follows: HCV replicon assay: ELISA of NS5A protein in replicon-containing cells (Inhibition of Viral RNA Replication). It is filed as cell-based. The settings on record: Hepatitis C virus; HCV replicon assay; ranges of EC50; read-out: Replicon. In a few lines:
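EC50 taken from an 8-point serially diluted dose curve, with NS5A level as read-out: fixed cells probed with primary monoclonal and HRP-conjugated secondary, TMB developed 30 min, OD 650 nm. Compound exposure 72 h in Huh-7-Clone A replicon cells (BB7 sequence).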
Background: Replicon systems follow genome replication, usually without infectious particles.

Another experiment addresses T1, HCV NS5B (Hepatitis C virus genotype 1b, UniProt Q9WMX2).
T1 construct: fusion protein, of which the carboxyl terminal 21 amino acids were removed to enhance its solubility; His tag (GSHHHHHH); made in house; host or cells: E. coli
Description: Inhibition of viral RNA-dependent RNA polymerase (RdRp), in vitro biochemical assay. On the set-up: species or system HCV genotype 1b virus (BB7). The following applies: HCV NS5B RdRp, BB7; class symbols A-D; read-out: HCV pol-BB7 IC50. In a few lines:
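IC50 values are the concentrations that halve in vitro RNA synthesis by HCV NS5B polymerase. The enzyme was a C-terminally truncated (Δ21), His-tagged genotype 1b (BB7 consensus) protein purified from E. coli.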

Here are results for 20 molecules from US7265152B2 (ViroPharma Incorporated, priority 2002, dated 2007).

By IC50 is commonly meant the concentration needed to halve the response being measured.

In the case of `CNC(=O)c1c(-c2ccc(F)cc2)oc2cc(N(CCF)S(C)(=O)=O)c(OC)cc12` [Example 307, 6-[(2-Fluoro-ethyl)-methanesulfonyl-amino]-2-(4-fluoro-phenyl)-5-methoxy-benzofuran-3-carboxylic acid methylamide], in experiment [1], the EC50 is less than 1000 nM. Besides, on HCV NS5B, the IC50 is not above 500 nM.
The like results for `CNC(=O)c1c(-c2ccc(F)cc2)oc2cc(N(CC(F)(F)F)S(C)(=O)=O)c(OC)cc12` [Example 308, 2-(4-Fluoro-phenyl)-6-[methanesulfonyl-(2,2,2-trifluoro-ethyl)-amino]-5-methoxy-benzofuran-3-carboxylic acid methylamide] were, in that order, less than 1000 nM and not above 500 nM.
`CNC(=O)c1c(-c2ccc(F)cc2)oc2cc(C3CCCN3S(C)(=O)=O)c(OC)cc12` (stereo not shown) [Example 309, 2-(4-Fluoro-phenyl)-6-(1-methanesulfonyl-pyrrolidin-2-yl)-5-methoxy-benzofuran-3-carboxylic acid methylamide]: the EC50 in experiment [1] was less than 1000 nM. The 50% inhibitory concentration (IC50) at HCV NS5B was not above 500 nM.
The like results for `CNC(=O)c1c(-c2ccc(F)cc2)oc2cc(-c3c(C4CC4)noc3COC)c(OC)cc12` [Example 310, 6-(3-Cyclopropyl-5-methoxymethyl-isoxazol-4-yl)-2-(4-fluoro-phenyl)-5-methoxy-benzofuran-3-carboxylic acid methylamide] were, in that order, less than 1000 nM and not above 500 nM.
The like results for `CNC(=O)c1c(-c2ccc(F)cc2)oc2cc(N(C)S(C)(=O)=O)c(OCc3ccc(C(=O)O)cc3)cc12` [Example 311, 4-[2-(4-Fluoro-phenyl)-6-(methanesulfonyl-methyl-amino)-3-methylcarbamoyl-benzofuran-5-yloxymethyl]-benzoic acid] were, in that order, less than 10000 nM and not above 500 nM.
With `CNC(=O)c1c(-c2ccc(F)cc2)oc2cc(N(C)S(C)(=O)=O)c(OCc3cccc(C(=O)O)c3)cc12` [Example 312, 3-[2-(4-Fluoro-phenyl)-6-(methanesulfonyl-methyl-amino)-3-methylcarbamoyl-benzofuran-5-yloxymethyl]-benzoic acid], the EC50 in experiment [1] is less than 1000 nM. Besides, the IC50 at HCV NS5B was not above 500 nM.
The like results for `CNC(=O)c1c(-c2ccc(F)cc2)oc2cc(-c3cc(COC)on3)c(OC)cc12` [Example 313, 2-(4-Fluoro-phenyl)-5-methoxy-6-(5-methoxymethyl-isoxazol-3-yl)-benzofuran-3-carboxylic acid methylamide] were, in that order, less than 1000 nM and not above 500 nM.
In the same order, the values of `CNC(=O)c1c(-c2ccc(F)cc2)oc2cc(-c3c(C)noc3C)c(O)cc12` [Example 314, 6-(3,5-Dimethyl-isoxazol-4-yl)-2-(4-fluoro-phenyl)-5-hydroxy-benzofuran-3-carboxylic acid methylamide] are less than 1000 nM and not above 500 nM.
In the same order, the values of `CNC(=O)c1c(-c2ccc(F)cc2)oc2cc(C3CNC(=O)C3)c(OC)cc12` (stereo not shown) [Example 315, 2-(4-Fluoro-phenyl)-5-methoxy-6-(5-oxo-pyrrolidin-3-yl)-benzofuran-3-carboxylic acid methylamide] are less than 10000 nM and not above 500 nM.
As to `CNC(=O)c1c(-c2ccc(F)cc2)oc2cc(N(CCOC(F)(F)F)S(C)(=O)=O)c(OC)cc12` [Example 316, 2-(4-Fluoro-phenyl)-6-[methanesulfonyl-(2-trifluoromethoxy-ethyl)-amino]-5-methoxy-benzofuran-3-carboxylic acid methylamide], the EC50 in experiment [1] is less than 1000 nM. In addition, at HCV NS5B, the IC50 was in the range of 500 to 5000 nM.
With `CNC(=O)c1c(-c2ccc(F)cc2)oc2cc(-c3cc[nH]c3)c(OC)cc12` [Example 317, 2-(4-Fluoro-phenyl)-5-methoxy-6-(1H-pyrrol-3-yl)-benzofuran-3-carboxylic acid methylamide], the EC50 in experiment [1] was less than 1000 nM. The IC50 on HCV NS5B is 5000 to 30000 nM.
For `CCOc1cc(F)ccc1-c1oc2cc(-c3c(C)noc3C)c(OC)cc2c1C(=O)NC` [Example 318, 6-(3,5-Dimethyl-isoxazol-4-yl)-2-(2-ethoxy-4-fluoro-phenyl)-5-methoxy-benzofuran-3-carboxylic acid methylamide], the EC50 in experiment [1] was more than 30000 nM. For the same molecule, the IC50 on HCV NS5B is not above 500 nM.
In the same order, the values of `CNC(=O)c1c(-c2ccc(F)cc2)oc2cc(N(C)S(C)(=O)=O)c(OCc3cscn3)cc12` [Example 319, 2-(4-Fluoro-phenyl)-6-(methanesulfonyl-methyl-amino)-5-(thiazol-4-ylmethoxy)-benzofuran-3-carboxylic acid methylamide] are less than 1000 nM and 500 to 5000 nM.
The like results for `CNC(=O)c1c(-c2ccc(F)cc2)oc2cc(N(C)S(C)(=O)=O)c(OCc3csc(C)n3)cc12` [Example 320, 2-(4-Fluoro-phenyl)-6-(methanesulfonyl-methyl-amino)-5-(2-methyl-thiazol-4-ylmethoxy)-benzofuran-3-carboxylic acid methylamide] were, in that order, less than 1000 nM and not above 500 nM.
The like results for `CNC(=O)c1c(-c2ccc(F)cc2)oc2cc(N(C)S(C)(=O)=O)c(Oc3nc(CCl)ns3)cc12` [Example 321, 5-(3-Chloromethyl-[1,2,4]thiadiazol-5-yloxy)-2-(4-fluoro-phenyl)-6-(methanesulfonyl-methyl-amino)-benzofuran-3-carboxylic acid methylamide] were, in that order, less than 1000 nM and not above 500 nM.
Regarding `CNC(=O)c1c(-c2ccc(F)cc2)oc2cc(N(CC(O)c3ccc(F)cc3)S(C)(=O)=O)c(OC(C)C)cc12` (stereo not shown) [Example 322, 2-(4-Fluoro-phenyl)-6-{[2-(4-fluoro-phenyl)-2-hydroxy-ethyl]-methanesulfonyl-amino}-5-isopropoxy-benzofuran-3-carboxylic acid methylamide], the EC50 in experiment [1] was less than 1000 nM. For the same molecule, the IC50 on HCV NS5B was not above 500 nM.
In the same order, the values of `CNC(=O)c1c(-c2ccc(F)cc2)oc2cc(-c3ncnn3C)c(OC)cc12` [Example 323, 2-(4-Fluoro-phenyl)-5-methoxy-6-(2-methyl-2H-[1,2,4]triazol-3-yl)-benzofuran-3-carboxylic acid methylamide] are less than 1000 nM and not above 500 nM.
The like results for `CNC(=O)c1c(-c2ccc(F)cc2)oc2cc(N(C)S(C)(=O)=O)c(OCc3c(C)noc3C)cc12` [Example 324, 5-(3,5-Dimethyl-isoxazol-4-ylmethoxy)-2-(4-fluoro-phenyl)-6-(methanesulfonyl-methyl-amino)-benzofuran-3-carboxylic acid methylamide] were, in that order, less than 1000 nM and not above 500 nM.
The like results for `CNC(=O)c1c(-c2ccc(F)cc2)oc2cc(N(C)S(C)(=O)=O)c(OCc3cccc(OC)c3)cc12` [Example 325, 2-(4-Fluoro-phenyl)-6-(methanesulfonyl-methyl-amino)-5-(3-methoxy-benzyloxy)-benzofuran-3-carboxylic acid methylamide] were, in that order, less than 1000 nM and not above 500 nM.
Take `CNC(=O)c1c(-c2ccc(F)cc2)oc2cc(N(CC(C)C)S(C)(=O)=O)c(O)cc12` [Example 326, 2-(4-Fluoro-phenyl)-5-hydroxy-6-(isobutyl-methanesulfonyl-amino)-benzofuran-3-carboxylic acid methylamide]: in experiment [1], the EC50 was less than 30000 nM. Moreover, the IC50 at HCV NS5B is 500 to 5000 nM.
